Measurements taken from ChEMBL document CHEMBL3988442, “University of Dundee, Small-Polar-MMV Screening Library” (2021).

How the values were obtained:
[1] = In vitro enzyme assay to detect hydrolysis of chlorophenol red-beta-D-[…] directly proportional to the number of Toxoplasma stably expressing beta-galactosidase; assay type: functional, organism-based, Toxoplasma gondii; conditions: for IC50: Toxoplasma gondii
Schistosoma mansoni = assay: High throughput screening of compounds against Schistosoma mansoni motility; assay type: functional; design: dose or concentration left out as unconfirmed
[2] = microbe, parasite or virus in culture; conditions: Mycobacterium tuberculosis, 96 h, read-out: pIC50 (converted)
[3] = microbe, parasite or virus in culture; conditions: Mycobacterium tuberculosis, 72 h, read-out: pIC50 (converted)
ClpP1P2 = ClpP1P2 (Mycobacterium tuberculosis (strain ATCC 25618 / H37Rv), UniProt P9WPC3+P9WPC5); assay: in vitro assay to detect presence of AMC directly proportional to the activity of ClpP1P2. GHDDI collaboration.; assay type: functional
Sequence of ClpP1P2 (P9WPC5 whole entry): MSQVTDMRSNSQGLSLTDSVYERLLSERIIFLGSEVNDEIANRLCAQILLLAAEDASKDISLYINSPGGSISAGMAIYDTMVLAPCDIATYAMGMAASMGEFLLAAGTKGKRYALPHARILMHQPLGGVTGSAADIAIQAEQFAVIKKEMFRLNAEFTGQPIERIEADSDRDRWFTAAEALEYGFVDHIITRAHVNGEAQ
Sequence of ClpP1P2 (P9WPC3 whole entry): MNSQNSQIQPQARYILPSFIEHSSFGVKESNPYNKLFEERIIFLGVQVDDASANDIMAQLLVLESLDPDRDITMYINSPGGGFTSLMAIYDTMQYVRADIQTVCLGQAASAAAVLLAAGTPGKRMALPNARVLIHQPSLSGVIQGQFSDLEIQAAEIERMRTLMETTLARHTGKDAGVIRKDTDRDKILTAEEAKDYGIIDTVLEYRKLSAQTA

Plasmodium falciparum = assay: Calibr Malaria Delayed Death Assay SOP; assay type: functional, organism-based

Compound	Percent Effect (Schistosoma mansoni)	further results
COC(=O)c1ccc2c(c1)CCCN2S(=O)(=O)c1cn(C)c(C)n1	–	IC50 [1]: 7.21 µM
CCn1cc(CN(C)S(=O)(=O)c2ccccc2)cn1	–	IC50 [1]: > 50.1 µM
CCC(=O)N1CCN(c2nc(C)nc3c(C)nn(C)c23)CC1	–	IC50 [1]: > 50.1 µM
NCCC(=O)Nc1ccccc1	–	IC50 [1]: > 50.1 µM
c1csc(-c2noc(C3CNC3)n2)c1	–	IC50 [1]: 2.96 µM
CCCn1ncc(-c2ccnc(N[C@@H]3C[C@@H]4CC[C@H]3C4)n2)c1C	–	IC50 [1]: 5.59 µM
CO[C@H]1[C@@H]2CC[C@H]1CN(c1nc(C)nc3ccsc13)C2	–	IC50 [1]: 6.77 µM
CCNc1ncc2c(n1)CN(c1ccc(Cl)cc1)C2=O	–	IC50 [1]: > 50.1 µM
COc1cccc(CNCC2CCOC2)c1 (centres undefined)	–	IC50 [1]: > 50.1 µM
CC(C)[C@@H]1CN(c2ncc(F)cn2)C[C@H]1NS(=O)(=O)N(C)C	–	IC50 [1]: > 50.1 µM
NC(=O)C(Cc1ccccc1)NS(=O)(=O)Cc1ccccc1Cl (centres undefined)	–	IC50 [1]: > 50.1 µM
CC(C)CCC(=O)N1CCC(C)(CO)C1 (centres undefined)	–	IC50 [1]: > 50.1 µM
Cc1cc(C(=O)Nc2cnn(CC(F)(F)F)c2)nc(N(C)C)n1	–	IC50 [1]: > 50.1 µM
CCc1noc(CC)c1CNC(=O)Nc1ncnn1C	–	IC50 [1]: > 50.1 µM
CCCc1nc2c(c(C)c(C)n2Cc2ccccn2)c(N)c1CC	–	pIC50 [1]: 4.935; IC50 [1]: 10.4 µM
CCN(CCO)Cc1ccc(Br)c2cccnc12	–	pIC50 [1]: 5.613; IC50 [1]: 2.26 µM
Cc1nc(C2(NCc3c(C)nn(C)c3N3CCOCC3)CCC2)no1	–	IC50 [1]: 25.3 µM
Cc1c(C(=O)NCC2CCN(C)C2)n(C)c2c(C)cccc12 (centres undefined)	–	IC50 [1]: > 50.1 µM
Cc1ccc([C@]2(O)CC[C@H]3CN(Cc4cccc(Cl)c4Cl)C[C@H]32)nc1	–	IC50 [1]: 8.76 µM
O=C([C@@H]1CCO[C@@H]2CCN(CC3CC3)C[C@H]21)N1CCCCO1	–	IC50 [1]: > 50.1 µM
NC(=O)C[C@@H](N)c1ccccc1Cl	–	IC50 [1]: > 50.1 µM

Compound	Percent Effect (Schistosoma mansoni)	further results
CCCc1nnsc1C(=O)NCC1CCN(c2ccccn2)CC1	-128.4%	IC50 [2]: 30.8 µM; IC50 [3]: > 50.1 µM
NS(=O)(=O)N1CCc2ccc(NC(=O)Cc3ccc(F)cc3)cc21	-30.69%	IC50 (ClpP1P2): 27.5 µM
O=C(c1ccc(Br)o1)N1CCN(Cc2ccc(OC(F)(F)F)cc2)CC1	71.06%	IC50 [2]: 40.6 µM; IC50 [3]: 27.8 µM
O=C(NC1CCCC1)N1CCCC(c2nccn2Cc2ccncc2)C1 (centres undefined)	-2.761%	IC50 [2]: > 50.1 µM
CN(CCc1cccs1)C1CCCN(Cc2noc(C3CC3)n2)C1 (centres undefined)	-35.96%	IC50 [2]: > 50.1 µM; IC50 [3]: > 50.1 µM
Brc1cc2c(cc1CN1CCC(N3CCCCC3)CC1)OCCO2	-13%	IC50 [2]: > 50.1 µM; IC50 [3]: 19.9 µM
CCc1c(C)sc(NC(=O)CN2CCN(CC)CC2)c1C(=O)OC	98.89%	IC50 [2]: 15.4 µM; IC50 [3]: 2.52 µM
Cc1cc(N(C)Cc2cc(C)on2)n2nc(C)c(C)c2n1	-4.677%	IC50 [2]: 33.7 µM; IC50 [3]: 13.5 µM
Cc1cnn(CC2CCCN2Cc2coc(-c3ccccc3)n2)c1 (centres undefined)	-1.507%	IC50 [2]: > 50.1 µM; IC50 [3]: 22.6 µM
O=C(CSc1nncs1)N1CCN(Cc2ccc(Cl)s2)CC1	-37.37%	IC50 [2]: 41.1 µM; IC50 [3]: 48.2 µM
CN(Cc1nccs1)c1nc(-c2ccccn2)nc2c1CCNCC2	-21.71%	pIC50 (Plasmodium falciparum): 6.065; IC50 (Plasmodium falciparum; Plasmodium falciparum): 882 nM
Cn1ncc2c(NCCC34CCCN3CCC4)nc(C3CCCC3)nc21	79%	IC50 [2]: 26.8 µM; IC50 [3]: 42.3 µM
OCC1CCCN1c1cc(NCCc2c[nH]c3ccccc23)ncn1 (centres undefined)	50.05%	IC50 [2]: 12.9 µM; IC50 [3]: 21.4 µM
COc1cccc(CNc2c(C)cnc3c2c(=O)n(C)c(=O)n3C)c1	5.662%	–
COCC(O)CNC(=O)c1coc(COc2ccc3sc(C)nc3c2)n1 (centres undefined)	22.1%	–
O=S1(=O)CCCN1Cc1coc(-c2cccs2)n1	-11.58%	–
Cc1cc(C)n(Cc2ccc(C(=O)NCCN3CCOCC3)cc2)n1	-9.196%	–
CC1CCN(CCNC(=O)C2CCN(S(N)(=O)=O)CC2)CC1	6.276%	–
Cc1nc2n(n1)CC(Nc1cc(C(F)(F)F)nc3ncnn13)CC2 (centres undefined)	-11.7%	–
O=C(CCn1cnnc1)N1CCCC(c2ncc[nH]2)C1 (centres undefined)	-28.96%	–
COc1ccc(NC(=O)N2CCN(c3ncccn3)CC2)cn1	-75.2%	–

Compound	Percent Effect (Schistosoma mansoni)	further results
CN(CCCc1cnn(C)c1)C(=O)C1COc2ccccc2C1 (centres undefined)	-70.43%	–
CN(CCN1CCCCCC1)C(=O)c1cc(CN2CCC(O)CC2)on1	-17.62%	–
CNc1nc(C(=O)N2CCCC(c3nccn3CC3CCC3)C2)cs1 (centres undefined)	-15.23%	–
CCC(C)NC(=O)Nc1ccc(CN2CCOC2=O)cc1 (centres undefined)	3.949%	–
COc1ccccc1[C@@H]1CN(C(=O)c2csc(C)n2)C[C@H]1C(=O)O	18.41%	–
O=C(c1cn(-c2cc(N3CCSCC3)ncn2)cn1)N1CCSCC1	-48.35%	–
O=C(c1cc(Cl)cc(Cl)c1)N1CCN(c2nccs2)CC1	-19.81%	–
c1ccc(-c2noc3c2CN(CC2CC2)CC3)cc1	-116.8%	–
O=C(CCc1ccccc1)Nc1ncccc1OC(F)F	-1.295%	–
Cc1cc(N2CCC(c3nnc(CN(C)C)n3C3CC3)CC2)ccn1	-0.2407%	–
O=C(c1cccnc1)N1C[C@@H]2CC[C@H](C1)N(Cc1cccc(Cl)c1F)C2	6.232%	–
O=C(CN1CCCC1Cn1cncn1)Nc1cccnc1 (centres undefined)	-24.16%	–
C1CCCN(c2nc(C3CC3)ns2)CC1	-22.51%	–
O=C1CCSCC(C(=O)N2CCN(C3CCCCC3)CC2)N1 (centres undefined)	-48.25%	–
O=C(CN(Cc1cccnc1)CC1CCCO1)Nc1ccc(F)cc1 (centres undefined)	-30.42%	–
O=C(Nc1cccnc1)N1CCC(n2ccc(C(F)(F)F)n2)CC1	-86.87%	IC50 [2]: > 50.1 µM; IC50 [3]: 1.07 µM
CSCC[C@H](N)C(=O)NCc1cc2n(n1)CCCN(C1CCCCC1)C2	-26.84%	–
CCn1nc(CC(C)C)cc1C(=O)NCCCOC	-69.66%	–
Cc1n[nH]c(C)c1C1CCCN1C(=O)CNC(=O)C(C)(C)C (centres undefined)	-23.3%	–
Cc1cc(N(C)Cc2noc(C)n2)n2nc(C)c(C)c2n1	-16.19%	–
Cn1ncc2c(NCCOc3ccc(F)cc3)nc(C3CCCC3)nc21	106.6%	–

Compound	Percent Effect (Schistosoma mansoni)	further results
CCc1nc(CN2CCCC(N(C)Cc3cnc(C)s3)C2)no1 (centres undefined)	23.33%	–
Cn1c(C(F)(F)F)nn(CCNC(=O)NCc2ccccc2)c1=O	16.6%	–
NC(=O)CN1CCCN(C(=O)c2ccn(-c3ccccc3)n2)CC1	-17.53%	–
CN(C)CCN(Cc1ccc(Cl)cc1)C(=O)c1cc[nH]n1	46.97%	–
Cc1ccccc1S(=O)(=O)NC(=O)CSc1ccc2c(c1)OCCO2	-27.11%	–
O=C(CCc1cc2n(n1)CCCN(C(=O)c1ccccn1)C2)NC1CC1	-25.84%	–
CCCNC(=O)N1CCC(Oc2cc(C)ccc2F)(C(=O)O)CC1	27.97%	–
COc1ccc(C2CCCN2S(=O)(=O)N(C)CC(C)C)cc1 (centres undefined)	29.94%	IC50 [2]: 13.2 µM; IC50 [3]: 31.2 µM
CS(=O)(=O)N1CCC(Oc2ccc(C(=O)N3CCSCC3)cc2Cl)CC1	-0.7709%	–
CC(C)NC(=O)N1CCC(n2ccc(C(F)(F)F)n2)CC1	-11.19%	–
CC(C#N)CSc1ccccc1NCC(=O)NCc1ccccc1 (centres undefined)	-63.78%	–
CCc1n[nH]c(C2CN(CC(=O)NCCc3ccsc3)CCO2)n1 (centres undefined)	-30.25%	–
Cc1ncsc1CCC(=O)NCc1cc2n(n1)CCN(C(=O)N(C)C)C2	10.91%	–
Cc1nc(C)n(CC2CN(CCc3ccncc3)CCO2)n1 (centres undefined)	-26.46%	–
CC(=O)NCC1CCN(CC2CCOc3ccccc3C2)CC1 (centres undefined)	-62.7%	–
COCCNS(=O)(=O)c1ccc2c(c1)CCN(C(=O)c1cncn1C)C2	4.246%	–
Cc1ccn(-c2ccccc2NCc2ncc[nH]2)n1	-21.01%	–
O=C(CCc1cc2n(n1)CCCN(Cc1ccccc1F)C2)NC1CC1	-12.36%	–
CC1CCCN(CCNC(=O)c2cncnc2C(C)C)C1 (centres undefined)	-12.57%	–
Cc1cnn(CC2CN(CCc3ccncc3)CCO2)c1 (centres undefined)	-83.94%	–
CCC(=O)N1CCc2[nH]cnc2C12CCN(C(=O)CCS(C)(=O)=O)CC2	-12.74%	–
